# Assay results as given in article PMC12340957, “Interactions between Lipopolysaccharide and Peptide Bacteriocin BacSp222 Influence Their Biological Activities” (ACS Infectious Diseases, 2025).
# Ends that are not written are not given here. * marks the point of attachment. For = O=C*
# Target: T1, TLR4 receptor (Homo sapiens, UniProt O00206+Q9Y6Y9)
# T1 construct: host or cells: HEK-Blue hTLR4 (HEK293 reporter cells)
# Test: HEK-Blue hTLR4 stimulation, SEAP reporter
# Type: cell-based
# Conditions: HEK-Blue hTLR4, BacSp222 0.016 to 2 μM without LPS, 17 h
# Protocol: The eukaryotic cells were cultured according to the methods described in previous publications. , The murine monocyte/macrophage RAW 264.7 cell line (ATCC TIB-71) and the murine monocyte/macrophage P388.D1 cell line (ATCC CCL-46) were purchased from the American Type Culture Collection (ATCC, Manassas, VA, USA). Human TLR4/NF-κB/SEAP (HEK-Blue hTLR4) and human TLR2 + TLR6/NF-κB/SEAP (HEK-Blue hTLR2/TLR6) reporter HEK293 cells were obtained from InvivoGen (San Diego, CA, USA). The passages of all TLR reporter HEK293 cells ranged from 7 to 15. All cells used in experiments were cultured under the following conditions: 5% CO2, 37 °C, and >95% humidity. RAW 264.7 and P388.D1 cells were cultured in Dulbecco’s modified Eagle’s medium (DMEM) containing 4.5 g/L glucose (GIBCO, Paisley, UK) and 5% (v/v) fetal bovine serum (FBS, GIBCO, Paisley, UK), whereas HEK-Blue hTLR4 and HEK-Blue hTLR2/TLR6 were cultured in DMEM containing 4.5 g/L glucose, 10% (v/v) FBS, 50 units/mL penicillin, and 50 μg/mL streptomycin (both from GIBCO, Paisley, UK). […]
# Measurement of the activity of SEAP, secreted by the HEK-Blue cells to the media, was conducted as described previously. […] Then, the plate was incubated at 37 °C for 1 h in the dark, and the absorbance was measured at 620 nm using a Synergy H1 Hybrid microplate reader controlled by Gene5 version 2.00.18 software (BIOTEK Instruments, Winooski, VT, USA). […]
# T1 sequence (O00206 24-839): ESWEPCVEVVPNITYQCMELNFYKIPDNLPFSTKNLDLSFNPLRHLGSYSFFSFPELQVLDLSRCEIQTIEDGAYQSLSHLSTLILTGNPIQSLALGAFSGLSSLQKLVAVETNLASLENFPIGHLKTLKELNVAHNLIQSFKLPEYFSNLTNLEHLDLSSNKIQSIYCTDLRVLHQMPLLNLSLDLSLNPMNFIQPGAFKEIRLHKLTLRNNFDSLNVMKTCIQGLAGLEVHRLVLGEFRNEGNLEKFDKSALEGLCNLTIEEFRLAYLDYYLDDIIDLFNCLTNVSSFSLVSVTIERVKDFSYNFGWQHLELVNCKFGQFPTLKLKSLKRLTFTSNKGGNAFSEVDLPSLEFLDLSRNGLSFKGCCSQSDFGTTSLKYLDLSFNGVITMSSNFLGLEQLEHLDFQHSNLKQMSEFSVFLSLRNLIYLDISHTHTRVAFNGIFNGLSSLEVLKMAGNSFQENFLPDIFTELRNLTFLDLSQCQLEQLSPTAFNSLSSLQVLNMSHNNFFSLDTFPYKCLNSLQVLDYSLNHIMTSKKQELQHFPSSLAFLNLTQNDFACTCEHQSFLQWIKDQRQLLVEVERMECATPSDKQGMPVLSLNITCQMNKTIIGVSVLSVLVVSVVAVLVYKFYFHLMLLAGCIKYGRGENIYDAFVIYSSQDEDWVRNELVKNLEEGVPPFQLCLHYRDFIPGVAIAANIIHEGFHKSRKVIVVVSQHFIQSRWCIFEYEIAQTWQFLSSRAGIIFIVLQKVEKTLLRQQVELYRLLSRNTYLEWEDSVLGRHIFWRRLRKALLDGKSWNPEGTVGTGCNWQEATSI
# T1 sequence (Q9Y6Y9 17-160 limits assumed): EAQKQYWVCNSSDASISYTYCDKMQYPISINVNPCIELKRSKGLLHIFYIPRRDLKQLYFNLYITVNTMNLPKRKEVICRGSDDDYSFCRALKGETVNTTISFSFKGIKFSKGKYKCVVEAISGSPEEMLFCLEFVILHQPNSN
substance,measurement,value
For-MAGLLRFLLSKGRALYNWAKSHVGKVWEWLKSGATYEQIKEWIENALGWR [BacSp222],stimulation of TLR4 by BacSp222 alone,none of the tested BacSp222 concentrations stimulated the TLR4 receptors
